Data taken from ChEMBL document CHEMBL1129142, “Synthesis of azido derivatives of semotiadil, a novel 1,4-benzothiazine calcium antagonist, for photoaffinity probes of calcium channels” (Bioorg Med Chem Lett, 1996).

How the values were obtained:
[1] = Displacement of [3H]semotiadil from L-type calcium channel of rabbit skeletal muscle; assay type: tissue-based, Oryctolagus cuniculus, Muscle tissue
[2] = [Ca2+] antagonistic activity was measured with isolated depolarized guinea pig taenia cecum.(test 1); assay type: functional, tissue-based, Cavia porcellus, Caecum
[3] = [Ca2+] antagonistic activity was measured with isolated depolarized guinea pig taenia cecum.(test 2); assay type: functional, tissue-based, Cavia porcellus, Caecum
[4] = [Ca2+] antagonistic activity was measured with isolated depolarized guinea pig taenia cecum.; assay type: functional, tissue-based, Cavia porcellus, Caecum

Ki [1]	IC50 [2]	IC50 [3]	IC50 [4]	Compound
121 nM	42.7 nM	54.5 nM		COc1ccc(OCCCN(C)CCOc2ccc3c(c2)OCO3)c([C@H]2Sc3ccccc3N(C)C2=O)c1 [SEMOTIADIL]
			275 nM	COc1ccc(OCCCN(C)CCOc2ccc3c(c2)OCO3)c([C@H]2Sc3ccccc3N(CCN=[N+]=[N-])C2=O)c1

More lines, now with the values behind:

Compound	Ki [1]	IC50 [2]	IC50 [3]	IC50 [4]
COc1ccc(OCCCN(C)CCOc2cccc(N=[N+]=[N-])c2)c(C2Sc3ccccc3N(C)C2=O)c1 (centres undefined)		427 nM	1380 nM	
COc1ccc(OCCCN(C)CCOc2ccc3c(c2)OCO3)c([C@H]2Sc3ccccc3N(CCCCN=[N+]=[N-])C2=O)c1				537 nM
COc1ccc(OCCCN(C)CCOc2cccc(N=[N+]=[N-])c2)c([C@H]2Sc3ccccc3N(C)C2=O)c1	2670 nM			654 nM
